Source: patent publication US4861897A, “2-Aryloxyalkylaminobenzoxazoles and 2-aryloxyalkylaminobenzothiazoles” (Ortho Pharmaceutical Corporation, priority 1987, dated 1989)
Where two headings read alike, the source gives them in different places.

Experiments:
[1] = biological target: T1, parietal cell H^+ K^+ ATPase (Oryctolagus cuniculus, UniProt P27112); test: Inhibition of parietal cell H+ K+ ATPase; type: biochemical, New Zealand white rabbits; conditions: Example 49; for IC50: given as "50% @ x μM", read-out: % Inhibition at Concentration (H+ K+ ATPase): concentration given for 50% inhibition; for inhibition at 100 µM: @ 10^-4 M, read-out: % Inhibition at Concentration (H+ K+ ATPase)
T1 construct: determined in fundic mucosa from New Zealand white rabbits which were homogenized; from tissue; host or cells: fundic mucosa of New Zealand white rabbits, homogenized; membrane protein
T1 sequence (P27112 2-1035 limits assumed): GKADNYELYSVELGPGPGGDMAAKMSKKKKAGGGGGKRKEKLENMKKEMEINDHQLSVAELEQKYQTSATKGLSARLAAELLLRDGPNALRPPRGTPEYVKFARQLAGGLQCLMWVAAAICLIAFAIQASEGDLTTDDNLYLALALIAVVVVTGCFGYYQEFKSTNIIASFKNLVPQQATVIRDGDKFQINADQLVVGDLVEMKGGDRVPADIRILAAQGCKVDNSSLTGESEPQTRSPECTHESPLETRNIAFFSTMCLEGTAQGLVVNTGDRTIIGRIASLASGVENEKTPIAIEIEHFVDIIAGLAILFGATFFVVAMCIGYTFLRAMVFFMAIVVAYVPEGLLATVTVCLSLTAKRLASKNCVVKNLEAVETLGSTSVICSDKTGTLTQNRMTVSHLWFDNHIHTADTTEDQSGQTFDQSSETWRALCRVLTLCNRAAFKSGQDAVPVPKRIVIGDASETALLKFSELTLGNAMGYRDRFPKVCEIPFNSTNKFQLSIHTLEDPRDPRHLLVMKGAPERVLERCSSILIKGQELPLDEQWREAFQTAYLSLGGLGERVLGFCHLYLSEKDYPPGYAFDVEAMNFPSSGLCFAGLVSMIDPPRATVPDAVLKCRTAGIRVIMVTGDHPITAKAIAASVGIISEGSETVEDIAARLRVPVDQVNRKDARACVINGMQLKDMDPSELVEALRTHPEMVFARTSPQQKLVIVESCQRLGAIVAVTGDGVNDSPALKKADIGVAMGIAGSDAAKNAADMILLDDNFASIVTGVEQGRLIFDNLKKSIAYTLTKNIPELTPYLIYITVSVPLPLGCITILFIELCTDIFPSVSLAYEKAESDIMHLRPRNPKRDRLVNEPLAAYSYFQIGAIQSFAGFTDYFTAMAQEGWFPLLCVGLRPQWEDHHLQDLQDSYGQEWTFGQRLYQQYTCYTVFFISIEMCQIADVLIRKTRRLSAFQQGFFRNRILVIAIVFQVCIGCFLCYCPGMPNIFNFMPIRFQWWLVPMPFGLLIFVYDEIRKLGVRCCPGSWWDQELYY
T1 sequence (P18597 whole entry partner): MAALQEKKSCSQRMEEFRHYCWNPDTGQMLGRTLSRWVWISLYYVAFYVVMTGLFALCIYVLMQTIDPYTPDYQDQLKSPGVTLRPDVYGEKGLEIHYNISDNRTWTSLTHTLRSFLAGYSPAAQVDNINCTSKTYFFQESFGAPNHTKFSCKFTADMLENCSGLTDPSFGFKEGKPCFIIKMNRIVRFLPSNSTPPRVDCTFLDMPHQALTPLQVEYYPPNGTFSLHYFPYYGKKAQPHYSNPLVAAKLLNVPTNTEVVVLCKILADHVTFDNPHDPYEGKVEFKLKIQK
Experimental: Inhibition of Parietal Cell H^+ K^+ ATPase
The activity was measured in a 1 ml incubation volume containing 50 mM Tris pH 7.4, 2 mM MgCl2, 2 mM Na2 ATP, with or without 20 mM KCl and vehicle control (dimethylsulfoxide) or test compound added in a 0.02 ml volume. Typically, 20-50 μg membrane protein was added and the tubes were preincubated with test compound for 10 minutes at 37° C. Substrate, Na2 ATP, was then added and the tubes were incubated for another 15 minutes at 37° C. The reaction was stopped by the addition of 1 ml 14% trichloroacetic acid and the samples were centrifuged at 2,000 xg for 10 minutes. The amount of inorganic phosphate present in an aliquot of supernatant was determined. H^+ K^+ ATPase activity was determined after correcting for the basal (Mg^++ only) enzyme activity present in the membrane preparation.

acid output = test: Gastric secretion, acid output in pylorus ligated rats; type: in vivo, male Charles River Sprague Dawley derived rats; conditions: Example 50, i.d. or s.c., four hours after pylorus ligation, compared to control; for response vs control in vivo at 20 mg/kg / response vs control in vivo at 40 mg/kg: Rattus norvegicus, 4 h, read-out: % Acid Secreted at mpK; for response vs control in vivo at 40 mg/kg: @ 40 mpK
Experimental: The inhibitory activity of the compounds on acid output was tested using pylorus ligation in a modification of the procedure of Shay, H. et al., Gastroenterology 26, 906 (1954). Basically, male Charles River Sprague Dawley derived rats weighing 150-300 grams were deprived of food but not water for 18-24 hours prior to use. Water was withheld during the experiment, however. The rats were weighed, anesthetized with ether and the pylorus ligated according to the method of Shay et al., supra. Treatment or vehicle control was then administered intraduodenally (i.d.) or subcutaneously (s.c.). Rats were housed two/cage and sacrificed with CO2 four hours after ligation. The stomachs were removed, rinsed, and contents emptied into a graduated centrifuge tube. The tubes were centrifuged, the volume of gastric juice recorded, and any samples obviously contaminated by feces, food or blood were eliminated. A 1 ml aliquot of gastric juice was titrated with 0.1N NaOH to a pH of 7.0-7.4. The volume of gastric juice secreted, the acid concentration, and the product of the volume times the concentration, i.e., the total amount of acid secreted, were measured.

[2] = system: histamine stimulated parietal cell; test: Isolated parietal cell assay, inhibition of 14C-aminopyrine accumulation, histamine stimulated; type: cell-based, rabbit; conditions: Example 48, 37° C., read-out: IC50 vhist (inhibition of 14C-AP accumulation in histamine stimulated parietal cell)
Experimental: (§1) Isolated Parietal Cell Assay
(§2) The isolated parietal cell assay was conducted using the procedures of Batzri, S. et al., Biochemica et Biophysica Acta 508, 328 (1978) and Soll, A. H. Am. J. Physiol. 238, G366 (1980). Basically, parietal cells were isolated from the fundic mucosa of rabbit stomachs by a four-stage collagenase digestion process. The supernatant fractions from the last two stages of this process contain the individual parietal cells. This cell suspension was centrifuged and reconstituted in a modified Hank's buffer to contain 1-2×10^6 cells/ml. […] This accumulation was stimulated by histamine and was blocked by H2 antagonists. The cells were incubated with 0.4-0.5×10^6 cpm ^14 C-AP, with various concentrations of histamine as a stimulant, 1×10^-5 M isobutylmethylxanthine, and the test compound added in a 20 μl volume of buffer or DMSO. The flasks were incubated in a shaking water bath at 37° C. for 20 minutes. Two aliquots were then taken from each flask and cell pellets were collected by centrifugation. The pellets were solubilized with Protosol (New England Nuclear) and radioactivity determined by liquid scintillation spectrometry. Data is presented as the IC50 vhist, the concentration of compound required to inhibit ^14 C-AP accumulation in the histamine stimulated parietal cell by 50%. When dibutyryl cAMP was used to stimulate the cells instead of histamine, a similar inhibition of ^14 C-AP accumulation was measured and the data are presented as the IC50 vcAMP, the concentration required to inhibit ^14 C-AP accumulation in the cAMP stimulated parietal cells by 50%.

[3] = system: cAMP stimulated parietal cells; test: Isolated parietal cell assay, inhibition of 14C-aminopyrine accumulation, dibutyryl cAMP stimulated; type: cell-based, rabbit; conditions: Example 48, 37° C., read-out: IC50 vcAMP (inhibition of 14C-AP accumulation in cAMP stimulated parietal cells)
Experimental: as §1, §2

Compound	IC50 [1]	response vs control in vivo at 20 mg/kg (acid output; @ 20 mpK)	response vs control in vivo at 40 mg/kg (acid output)	IC50 ([2]; Oryctolagus cuniculus, 20 min)	IC50 ([3]; Oryctolagus cuniculus, 20 min)	% Acid Secreted at mpK (acid output; @ 10 mpK)	% Acid Secreted at mpK (acid output; @ 20 mpK)	IC50 ([2]; 20 minutes)	IC50 ([3]; 20 minutes)	inhibition at 100 µM [1]
CCCN(CCC)CCCCOc1cccc(/C=C/c2nc3ccccc3s2)c1 [Example 26, (E)-2-[2-(3-Dipropylaminobutoxyphenyl)ethenyl]benzothiazole]	19 µM	42%	80%	0.09 µM	0.18 µM					
CCCCN(CCCC)CCCOc1ccc(/C=C/c2nc3ccc(OC)cc3o2)cc1 [Example 16, (E)-2-[2-(4-Dibutylaminopropoxyphenyl)ethenyl]-6-methoxybenzoxazole]	26 µM		64%	0.08 µM	0.05 µM					
CCCN(CCC)CCCOc1c(C)cc(/C=C/c2nc3ccccc3o2)cc1C [Example 47]	15 µM	90%		0.14 µM	0.1 µM					
CCCN(CCC)CCCCOc1ccc(/C=C/c2nc3ccccc3o2)cc1 [Example 20]	21 µM	90%		0.39 µM	0.11 µM	59%				
C(=C\c1nc2ccccc2o1)/c1ccc(OCCCCn2ccnc2)cc1 [Example 21]	30 µM	14%		0.27 µM	0.33 µM					
C(=C\c1nc2ccccc2o1)/c1cccc(OCCCn2ccnc2)c1 [Example 4]	10 µM	38%		0.21 µM	0.34 µM					
(E)-2-[2-[4-(3-Methylbenzylaminopropoxy)phenyl]ethenyl]benzoxazole [Example 13]	66 µM						34%	0.41 µM	1.4 µM	
CN1CCN(CCCOc2cccc(/C=C/c3nc4ccccc4o3)c2)CC1 [Example 2, (E)-2-[2-[3-[3-(4-Methylpiperazino)propoxy]phenyl]ethenyl]benzoxazole]	94 µM	9%		1.2 µM	0.41 µM					
C(=C\c1nc2ccccc2o1)/c1ccc(OCCCN2CCCCC2)cc1 [Example 12, (E)-2-[2-[4-(3-Piperidinopropoxy)phenyl]ethenyl]benzoxazole]	27 µM		88%	0.26 µM	0.15 µM					
CCCN(CCC)CCCCOc1ccc(/C=C/c2nc3ccccc3o2)cc1Cl [Example 45, (E)-2-[2-(3-Chloro-4-dipropylaminobutoxyphenyl]ethenyl]benzoxazole]	17.5 µM	42%		0.8 µM	0.74 µM					
CCN(CC)CCCCOc1ccc(/C=C/c2nc3ccccc3s2)cc1 [Example 41]	44 µM	52%		0.18 µM	0.35 µM					
CCCCN(CCCC)CCCOc1ccc(/C=C/c2nc3ccccc3s2)cc1 [Example 28, (E)-2-[2-(4-Dibutylaminopropoxyphenyl)ethenyl]benzothiazole]		49%		21 µM	0.45 µM	25%				46%
CCCCN(CCCC)CCCCOc1ccc(/C=C/c2nc3ccccc3o2)cc1 [Example 18]	20 µM			0.18 µM	< 10 µM	14%				
C(=C\c1nc2ccccc2o1)/c1ccc(OCCCCCn2ccnc2)cc1 [Example 24]	13 µM	45%		0.28 µM	0.23 µM					
CCCCN(CCCC)CCCOc1ccc(/C=C/c2nc3ccc(OC)cc3s2)cc1 [Example 35, (E)-2-[2-(4-Dibutylaminopropoxyphenyl)ethenyl]-6-methoxybenzothiazole]	60 µM	31%		0.26 µM	0.46 µM					
CCCN(CCC)CCCCOc1ccc(/C=C/c2nc3ccccc3s2)cc1 [Example 38]	21 µM		93%	0.03 µM	0.12 µM					
CCCCN(CCCC)CCCOc1ccc(/C=C/c2nc3cc(C)ccc3s2)cc1 [Example 34, (E)-2-[2-(4-Dibutylaminopropoxyphenyl)ethenyl]-5-methylbenzothiazole]		14%		0.29 µM	0.53 µM					52%
COc1ccccc1N1CCN(CCCOc2ccc(/C=C/c3nc4ccccc4o3)cc2)CC1 [Example 14]		8%		0.6 µM	0.8 µM					43%
C(=C\c1nc2ccccc2s1)/c1cccc(OCCCCn2ccnc2)c1 [Example 27]	4.7 µM	42%	83%	0.11 µM	0.21 µM					
CCCCN(CCCC)CCOc1ccc(/C=C/c2nc3ccccc3o2)cc1 [Example 17, (E)-2-[2-(4-Dibutylaminoethoxyphenyl)ethenyl]benzoxazole]		43%		0.26 µM	0.54 µM					43%
CCCCN(CCCC)CCCOc1ccc(/C=C/c2nc3cc(C)ccc3o2)cc1 [Example 15, (E)-2-[2-(4-Dibutylaminopropoxyphenyl)ethenyl]-5-methylbenzoxazole]	27 µM		88%	0.26 µM	0.34 µM					
